In patent EP4790066A1, “GLP-1R/GIPR/GCGR TRIPLE AGONIST ANALOGUE AND USE THEREOF” (Shenzhen Bay Laboratory, priority 2023, dated 2025):
*1 amine or outer side, *2 acyl side, *3 side chain or, on linkers, in order; H or OH if unused. Where a SMILES comes first, the peptide text is derived from it. Bridges are numbered along the chain shown (N, C = ends). [ ]: non-standard residue; d: D form. X1 = O=C(O)CCCCCCCCCCCCCCCCCCC(=O)N[C@@H](CCCCNC(=O)COCCOCCNC(=O)COCCOCCNC(=O)CCC(=O)N(CCNC(=O)C[*:1])CCNC(=O)C[*:2])C(=O)O; Phe(2-F) = N[C@@H](Cc1ccccc1F)C(=O)O; tBuAla = CC(C)(C)C[C@H](N)C(=O)O; αMeL = CC(C)C[C@](C)(N)C(=O)O; αMeK = C[C@](N)(CCCCN)C(=O)O; αMeS = C[C@](N)(CO)C(=O)O; Iva = CC[C@](C)(N)C(=O)O; Aib = CC(C)(N)C(=O)O

Key:
Format in all cases: cell-based
GIPR = biological target: T1, GIPR (Homo sapiens, UniProt P48546); assay: CreLuc method (CRE-luciferase reporter), HEK293/pGM-CREB-L-Luc/GIPR pool; conditions: 6 h incubation, read-out: EC50 (pM) for each receptor GIPR
T1 construct: expressed in transfected cells
T1 sequence (P48546 22-466): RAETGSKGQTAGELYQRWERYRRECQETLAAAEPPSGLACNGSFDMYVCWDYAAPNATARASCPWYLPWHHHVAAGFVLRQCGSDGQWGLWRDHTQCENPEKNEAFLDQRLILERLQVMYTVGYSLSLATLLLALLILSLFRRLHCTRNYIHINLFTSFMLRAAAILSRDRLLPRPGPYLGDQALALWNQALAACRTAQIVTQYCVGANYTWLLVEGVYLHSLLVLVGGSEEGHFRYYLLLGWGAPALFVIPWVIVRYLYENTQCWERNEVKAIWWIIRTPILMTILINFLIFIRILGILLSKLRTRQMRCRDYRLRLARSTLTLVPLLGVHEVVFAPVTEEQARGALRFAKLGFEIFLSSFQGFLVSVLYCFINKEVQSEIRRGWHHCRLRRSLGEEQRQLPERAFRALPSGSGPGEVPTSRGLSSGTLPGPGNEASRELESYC
Procedure: (§1) 1. Insulinotropic analogues can bind to the target receptor on the cell membrane, activate the cAMP response element (CRE), and initiate the expression of downstream luciferase. The expression level is positively correlated with the biological activity of the analogue being tested. After activation, luciferase substrate is added for chemiluminescence detection, and the luminescence intensity is determined to characterize the biological activity of the test compounds. Therefore, the target peptide derivatives (or polypeptide derivatives, i.e., TG1-TG94) prepared in Example 1 and Example 2 can be tested by the CreLuc method. The specific steps are as follows: The stably transfected cell lines HEK293/pGM-CREB-L-Luc/GLP-1R pool, HEK293/pGM-CREB-L-Luc/GIPR pool, and 293HEK/pGM-CREB-L-Luc/GCGR pool were constructed. […] The corresponding test cells were digested (1 min), dispersed by pipetting, and centrifuged (1000 rpm, 5 min). The culture medium was discarded, and the cells were resuspended in freestyle medium, centrifuged again, collected, and counted. The cells were then diluted to a cell density of 5 x 10^5 cells/mL and then added to the detection wells of a 384-well plate (40 µL/20,000 cells/well). Echo was used to add the corresponding analyte dilution series. The cell plate was incubated at 37°C and 5% CO2 for 6 h, then ONE-GLO (20 µL/well) was added for detection. It was kept in the dark for 3 min, then a chemiluminescent microplate reader was used for determination. The plate was read within 30 min, and the determination results were recorded. […] Table 3: EC50 values for target peptide derivatives

GLP-1R = biological target: T2, GLP-1R (Homo sapiens, UniProt P43220); assay: CreLuc method (CRE-luciferase reporter), HEK293/pGM-CREB-L-Luc/GLP-1R pool; conditions: 6 h incubation, read-out: EC50 (pM) for each receptor GLP-1R
T2 construct: expressed in transfected cells
Procedure: as §1

GCGR = biological target: T3, GCGR (Homo sapiens, UniProt P47871); assay: CreLuc method (CRE-luciferase reporter), 293HEK/pGM-CREB-L-Luc/GCGR pool; conditions: 6 h incubation, read-out: EC50 (pM) for each receptor GCGR
T3 construct: expressed in transfected cells
Procedure: as §1

T3 sequence (P47871 26-477, species assumed): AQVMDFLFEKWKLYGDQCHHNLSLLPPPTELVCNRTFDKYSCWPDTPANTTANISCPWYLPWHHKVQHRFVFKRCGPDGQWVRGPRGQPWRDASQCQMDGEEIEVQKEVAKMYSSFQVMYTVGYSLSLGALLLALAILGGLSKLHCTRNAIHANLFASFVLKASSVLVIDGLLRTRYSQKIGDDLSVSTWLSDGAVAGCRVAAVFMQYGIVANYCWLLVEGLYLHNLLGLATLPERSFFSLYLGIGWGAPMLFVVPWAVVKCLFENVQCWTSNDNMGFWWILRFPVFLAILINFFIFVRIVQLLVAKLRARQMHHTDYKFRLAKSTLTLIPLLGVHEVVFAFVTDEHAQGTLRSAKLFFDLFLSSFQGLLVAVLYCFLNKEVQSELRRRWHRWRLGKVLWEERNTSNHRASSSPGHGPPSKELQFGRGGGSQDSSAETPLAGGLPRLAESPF
T2 sequence (P43220 24-463, species assumed): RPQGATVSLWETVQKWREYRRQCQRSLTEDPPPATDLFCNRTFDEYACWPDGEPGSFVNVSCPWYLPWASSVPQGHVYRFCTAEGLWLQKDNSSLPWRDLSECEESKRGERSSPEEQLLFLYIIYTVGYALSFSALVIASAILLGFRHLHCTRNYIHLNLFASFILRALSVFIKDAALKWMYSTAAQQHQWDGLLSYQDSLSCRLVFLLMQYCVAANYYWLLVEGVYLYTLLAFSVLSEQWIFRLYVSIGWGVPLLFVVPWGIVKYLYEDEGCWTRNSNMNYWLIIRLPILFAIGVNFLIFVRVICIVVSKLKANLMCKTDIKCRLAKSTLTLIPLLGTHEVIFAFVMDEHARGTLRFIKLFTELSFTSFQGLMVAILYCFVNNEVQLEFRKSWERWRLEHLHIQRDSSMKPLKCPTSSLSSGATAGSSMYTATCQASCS

SMILES | EC50 (GIPR) [pM] | EC50 (GLP-1R) [pM] | EC50 (GCGR) [pM]
CC[C@H](C)[C@@H]1NC(=O)[C@H](Cc2ccccc2)NC(=O)[C@@H](NC(=O)C(C)(C)NC(=O)[C@H](CCC(N)=O)NC(=O)[C@H](C)NC(=O)[C@H](CCCCNC(C)=O)NC(=O)[C@H](CCCCN)NC(=O)[C@H](CC(=O)O)NC(=O)[C@H](CC(C)(C)C)NC(=O)[C@](C)(CC(C)C)NC(=O)[C@@H](NC(=O)[C@H](CO)NC(=O)[C@H](Cc2ccc(O)cc2)NC(=O)[C@H](CC(=O)O)NC(=O)[C@H](CO)NC(=O)[C@@H](NC(=O)[C@H](Cc2ccccc2)NC(=O)[C@@H](NC(=O)CNC(=O)[C@H](CCC(N)=O)NC(=O)C(C)(C)NC(=O)[C@@H](N)Cc2ccc(O)cc2)[C@@H](C)O)[C@@H](C)O)[C@@H](C)CC)CSCC(=O)NCCN(C(=O)CCC(=O)NCCOCCOCC(=O)NCCOCCOCC(=O)NCCCC[C@H](NC(=O)CCCCCCCCCCCCCCCCCCC(=O)O)C(=O)O)CCNC(=O)CSC[C@@H](C(=O)NCC(=O)NCC(=O)N2CCC[C@H]2C(=O)N[C@@H](CO)C(=O)N[C@@H](CO)C(=O)NCC(=O)N[C@@H](C)C(=O)N2CCC[C@H]2C(=O)N2CCC[C@H]2C(=O)N2CCC[C@H]2C(=O)N[C@@H](CO)C(N)=O)NC(=O)[C@H](CC(C)C)NC(=O)[C@H](CC(C)C)NC(=O)[C@H](Cc2ccc(O)cc2)NC(=O)[C@H](CCC(=O)O)NC1=O [TG26] (H-Y[Aib]QGTFTSDYSI[αMeL][tBuAla]DKK(Ac)AQ[Aib]CFIEYLLCGGPSSGAPPPS-NH2; linker 21-28 via X1) | 59.4 | 149 | 360
CC[C@H](C)[C@@H]1NC(=O)[C@H](Cc2ccccc2)NC(=O)[C@@H](NC(=O)C(C)(C)NC(=O)[C@H](CCC(N)=O)NC(=O)[C@H](C)NC(=O)[C@H](CCCCNC(C)=O)NC(=O)[C@H](CCCCN)NC(=O)[C@H](CC(=O)O)NC(=O)[C@H](CC(C)C)NC(=O)[C@](C)(CC)NC(=O)[C@@H](NC(=O)[C@H](CO)NC(=O)[C@H](Cc2ccc(O)cc2)NC(=O)[C@H](CC(=O)O)NC(=O)[C@H](CO)NC(=O)[C@@H](NC(=O)[C@H](Cc2ccccc2F)NC(=O)[C@@H](NC(=O)CNC(=O)[C@H](Cc2c[nH]cn2)NC(=O)C(C)(C)NC(=O)[C@@H](N)Cc2c[nH]cn2)[C@@H](C)O)[C@@H](C)O)[C@@H](C)CC)CSCC(=O)NCCN(C(=O)CCC(=O)NCCOCCOCC(=O)NCCOCCOCC(=O)NCCCC[C@H](NC(=O)CCCCCCCCCCCCCCCCCCC(=O)O)C(=O)O)CCNC(=O)CSC[C@@H](C(=O)NCC(=O)NCC(=O)N2CCC[C@H]2C(=O)N[C@@H](CO)C(=O)N[C@@H](CO)C(=O)NCC(=O)N[C@@H](C)C(=O)N2CCC[C@H]2C(=O)N2CCC[C@H]2C(=O)N2CCC[C@H]2C(=O)N[C@@H](CO)C(N)=O)NC(=O)[C@H](CC(C)C)NC(=O)[C@H](CC(C)C)NC(=O)[C@H](Cc2ccc(O)cc2)NC(=O)[C@H](CCC(=O)O)NC1=O [TG66] (H-H[Aib]HGT[Phe(2-F)]TSDYSI[Iva]LDKK(Ac)AQ[Aib]CFIEYLLCGGPSSGAPPPS-NH2; linker 21-28 via X1) | 34.7 | 435 | 201
CC[C@H](C)[C@@H]1NC(=O)[C@H](Cc2ccccc2)NC(=O)[C@@H](NC(=O)[C@H](CCC(N)=O)NC(=O)[C@H](CCC(N)=O)NC(=O)[C@H](C)NC(=O)[C@H](CCCCNC(C)=O)NC(=O)[C@](C)(CCCCN)NC(=O)[C@H](CC(=O)O)NC(=O)[C@H](CC(C)C)NC(=O)[C@H](CC(C)C)NC(=O)[C@@H](NC(=O)[C@](C)(CO)NC(=O)[C@H](Cc2ccc(O)cc2)NC(=O)[C@H](CC(=O)O)NC(=O)[C@H](CO)NC(=O)[C@@H](NC(=O)[C@H](Cc2ccccc2F)NC(=O)[C@@H](NC(=O)CNC(=O)[C@H](CCC(N)=O)NC(=O)C(C)(C)NC(=O)[C@@H](N)Cc2ccc(O)cc2)[C@@H](C)O)[C@@H](C)O)[C@@H](C)CC)CSCC(=O)NCCN(C(=O)CCC(=O)NCCOCCOCC(=O)NCCOCCOCC(=O)NCCCC[C@H](NC(=O)CCCCCCCCCCCCCCCCCCC(=O)O)C(=O)O)CCNC(=O)CSC[C@@H](C(=O)NCC(=O)NCC(=O)N2CCC[C@H]2C(=O)N[C@@H](CO)C(=O)N[C@@H](CO)C(=O)NCC(=O)N[C@@H](C)C(=O)N2CCC[C@H]2C(=O)N2CCC[C@H]2C(=O)N2CCC[C@H]2C(=O)N[C@@H](CO)C(N)=O)NC(=O)[C@H](CC(C)C)NC(=O)[C@H](CC(C)C)NC(=O)[C@H](Cc2ccc(O)cc2)NC(=O)[C@H](CCC(=O)O)NC1=O [TG56] (H-Y[Aib]QGT[Phe(2-F)]TSDY[αMeS]ILLD[αMeK]K(Ac)AQQCFIEYLLCGGPSSGAPPPS-NH2; linker 21-28 via X1) | 39.5 | 197 | 681
CC[C@H](C)[C@@H]1NC(=O)[C@H](Cc2ccccc2)NC(=O)[C@@H](NC(=O)C(C)(C)NC(=O)[C@H](CCC(N)=O)NC(=O)[C@H](C)NC(=O)[C@H](CCCCNC(C)=O)NC(=O)[C@H](CCCCN)NC(=O)[C@H](CC(=O)O)NC(=O)[C@H](CC(C)C)NC(=O)[C@](C)(CC(C)C)NC(=O)[C@@H](NC(=O)[C@H](CO)NC(=O)[C@H](Cc2ccc(O)cc2)NC(=O)[C@H](CC(=O)O)NC(=O)[C@H](CO)NC(=O)[C@@H](NC(=O)[C@H](Cc2ccccc2)NC(=O)[C@@H](NC(=O)CNC(=O)[C@H](CCC(N)=O)NC(=O)[C@@H](CO)NC(=O)[C@@H](N)Cc2ccc(O)cc2)[C@@H](C)O)[C@@H](C)O)[C@@H](C)CC)CSCC(=O)NCCN(C(=O)CCC(=O)NCCOCCOCC(=O)NCCOCCOCC(=O)NCCCC[C@H](NC(=O)CCCCCCCCCCCCCCCCCCC(=O)O)C(=O)O)CCNC(=O)CSC[C@@H](C(=O)NCC(=O)NCC(=O)N2CCC[C@H]2C(=O)N[C@@H](CO)C(=O)N[C@@H](CO)C(=O)NCC(=O)N[C@@H](C)C(=O)N2CCC[C@H]2C(=O)N2CCC[C@H]2C(=O)N2CCC[C@H]2C(=O)N[C@@H](CO)C(N)=O)NC(=O)[C@H](CC(C)C)NC(=O)[C@H](CC(C)C)NC(=O)[C@H](Cc2ccc(O)cc2)NC(=O)[C@H](CCC(=O)O)NC1=O [TG22] (H-Y[dS]QGTFTSDYSI[αMeL]LDKK(Ac)AQ[Aib]CFIEYLLCGGPSSGAPPPS-NH2; linker 21-28 via X1) | 18.3 | 665 | 205
CC[C@H](C)[C@@H]1NC(=O)[C@H](Cc2ccccc2)NC(=O)[C@@H](NC(=O)C(C)(C)NC(=O)[C@H](CCC(N)=O)NC(=O)[C@H](C)NC(=O)[C@H](CCCNC(=N)N)NC(=O)[C@H](CCCCN)NC(=O)[C@H](CC(=O)O)NC(=O)[C@H](CC(C)C)NC(=O)[C@](C)(CC(C)C)NC(=O)[C@@H](NC(=O)[C@H](CO)NC(=O)[C@H](Cc2ccc(O)cc2)NC(=O)[C@H](CC(=O)O)NC(=O)[C@H](CO)NC(=O)[C@@H](NC(=O)[C@H](Cc2ccccc2)NC(=O)[C@@H](NC(=O)CNC(=O)[C@H](CCC(N)=O)NC(=O)C(C)(C)NC(=O)[C@@H](N)Cc2ccc(O)cc2)[C@@H](C)O)[C@@H](C)O)[C@@H](C)CC)CSCC(=O)NCCN(C(=O)CCC(=O)NCCOCCOCC(=O)NCCOCCOCC(=O)NCCCC[C@H](NC(=O)CCCCCCCCCCCCCCCCCCC(=O)O)C(=O)O)CCNC(=O)CSC[C@@H](C(=O)NCC(=O)NCC(=O)N2CCC[C@H]2C(=O)N[C@@H](CO)C(=O)N[C@@H](CO)C(=O)NCC(=O)N[C@@H](C)C(=O)N2CCC[C@H]2C(=O)N2CCC[C@H]2C(=O)N2CCC[C@H]2C(=O)N[C@@H](CO)C(N)=O)NC(=O)[C@H](CC(C)C)NC(=O)[C@H](CC(C)C)NC(=O)[C@H](Cc2ccc(O)cc2)NC(=O)[C@H](CCC(=O)O)NC1=O [TG35] | 15.5 | 40.1 | 273
